Patent publication US12264145B2, “Crystal form F of trelagliptin and preparation method thereof” (GUANGDONG UNIVERSITY OF TECHNOLOGY, priority 2023, dated 2025)
≈ marks a conversion by molar mass, not a printed value.

How the values were obtained:
Type in all cases: physicochemical
[1] = Equilibrium solubility of trelagliptin crystal forms in different dissolution media (UV-vis at 279 nm); conditions: for Solubility / solubility at 24 h: 24 h; for solubility at 24 h: 37 °C, thermodynamic from solid
[2] = High-temperature stability test (XRPD); conditions: 60° C. for 10 d, XRPD on day 5 and day 10
Experimental: (§1) According to the Guidelines for Stability Tests of Active Pharmaceutical Ingredients (APIs) and Formulations, the stability of the novel crystal form F of trelagliptin was tested.
(§2) High-temperature test: The novel crystal form F of trelagliptin was spread in a petri dish and then placed in a drying oven at 60° C. for 10 d, where on day 5 and day 10, a sample was taken and subjected to XRPD analysis to determine whether the crystal form was stable.

[3] = High-humidity stability test (XRPD); conditions: relative humidities of 90% and 75% at 25° C. for 10 d, XRPD on day 5 and day 10
Experimental: as §1
High-humidity test: The novel crystal form F of trelagliptin was spread in petri dishes, and then the petri dishes were placed in constant-temperature and constant-humidity incubators respectively with relative humidities of 90% and 75% at 25° C. for 10 d, where on day 5 and day 10, a sample was taken and subjected to XRPD analysis to determine whether the crystal form was stable.

[4] = Strong light irradiation stability test (XRPD); conditions: illuminance 4500 lx±500 lx for 10 d, XRPD on day 5 and day 10
Experimental: as §1
as §2, with “Strong light irradiation” for “High-temperature”, “strong light irradiation test chamber with illuminance of 4500 lx±500 lx” for “drying oven at 60° C.”

Moisture absorption = conditions: 80% RH, 25° C., 24 h
Experimental: The dried novel crystal form F of trelagliptin prepared in this example was spread in a weighing bottle, then placed in a constant-temperature and constant-humidity incubator with a humidity of 80% RH and a temperature of 25° C. for 24 h, and then weighed.

Row | Solubility ([1]; buffer solution pH = 1.2, 37° C.) [mg/mL] | Solubility ([1]; buffer solution pH = 7.4, 37° C.) [mg/mL] | solubility at 24 h ([1]; deionized water, water) [mg/mL] | Solubilities compared with the original crystal form I ([1]; deionized water, pH 6.8, pH 7.4 and pH 1.2 buffer solutions) | Solubility ([1]; sodium phosphate buffer solution pH = 6.8, 37° C.) [mg/mL] | Stability of the crystal form [2] | Stability of the crystal form [3] | Stability of the crystal form [4] | Weight gain (moisture absorption) (Moisture absorption) | solubility at 24 h ([1]; buffer solution, pH 1.2, simulated gastric fluid, buffer solution pH = 1.2, 37° C.) [mg/mL] | Compound
1 | 73.61 (≈ 206 mM) | 30.54 (≈ 85.5 mM) | 8.51 (≈ 23.8 mM) | significantly-higher solubilities | 32.78 (≈ 91.7 mM) | no impact on the stability | no impact on the stability | no impact on the stability | less than 0.4% | – | Cn1c(=O)cc(N2CCC[C@@H](N)C2)n(Cc2cc(F)ccc2C#N)c1=O [Crystal form F, trelagliptin]
2 | – | – | – | – | – | – | – | – | – | 42.7 (≈ 119 mM) | Cn1c(=O)cc(N2CCC[C@@H](N)C2)n(Cc2cc(F)ccc2C#N)c1=O [Crystal form I, trelagliptin]
